Source: PubChem BioAssay AID1919001 (Molecular Pharmacology Branch, DTP, NCI, 2023)

Tested on: 699152-130-R-J1-PDC complex spheroid growth
Assay: Anticancer human tumor 699152-130-R-J1-PDC patient-derived pancreatic carcinoma cell line growth inhibition [AhR]
Conditions: for IC50: curve of first compound; for viability, T/C: stronger effect = lower value
Procedure, shortened: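 Complex tumor spheroids co-cultured with HUVEC and human MSC stroma; AhR antagonists tested in combination with standard-of-care and investigational agents. Top concentration at or near clinical Cmax (else 10 microM), half-log dilutions; growth expressed as percent test/control.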

[1] = second compound 0.1 µM, first compound 0.000316 µM
[2] = second compound 0.1 µM, first compound 0.001 µM
[3] = second compound 0.1 µM, first compound 0.00316 µM
[4] = second compound 0.1 µM, first compound 0.01 µM
[5] = second compound 0.1 µM, first compound 0.0316 µM
[6] = second compound 0.1 µM, first compound 0.1 µM
[7] = second compound 0.316 µM, first compound 0.000316 µM
[8] = second compound 0.316 µM, first compound 0.001 µM
[9] = second compound 0.316 µM, first compound 0.00316 µM
[10] = second compound 0.316 µM, first compound 0.01 µM
[11] = second compound 0.316 µM, first compound 0.0316 µM
[12] = second compound 0.316 µM, first compound 0.1 µM
[13] = second compound 1 µM, first compound 0.000316 µM
[14] = second compound 1 µM, first compound 0.001 µM
[15] = second compound 1 µM, first compound 0.00316 µM
[16] = second compound 1 µM, first compound 0.01 µM
[17] = second compound 1 µM, first compound 0.0316 µM
[18] = second compound 1 µM, first compound 0.1 µM
[19] = second compound 3.16 µM, first compound 0.000316 µM
[20] = second compound 3.16 µM, first compound 0.001 µM
[21] = second compound 3.16 µM, first compound 0.00316 µM
[22] = second compound 3.16 µM, first compound 0.01 µM
[23] = second compound 3.16 µM, first compound 0.0316 µM
[24] = second compound 3.16 µM, first compound 0.1 µM
[25] = second compound 10 µM, first compound 0.000316 µM
[26] = second compound 10 µM, first compound 0.001 µM
[27] = second compound 10 µM, first compound 0.00316 µM
[28] = second compound 10 µM, first compound 0.01 µM
[29] = second compound 10 µM, first compound 0.0316 µM
[30] = second compound 10 µM, first compound 0.1 µM
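Note: compound exposure lasted 7 days after spheroids had grown for 3 days.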

Cn1ncnc1C1c2n[nH]c(=O)c3cc(F)cc(c23)NC1c1ccc(F)cc1 (stereo not given) + Cc1cncc(-c2nc(NCCc3c[nH]c4ccccc34)c3ncn(C(C)C)c3n2)c1
IC50 (second compound 0.1 µM): > 100 nM
IC50 (second compound 0.316 µM): > 100 nM
IC50 (second compound 1 µM): > 100 nM
IC50 (second compound 3.16 µM): > 100 nM
IC50 (second compound 10 µM): < 0.316 nM
viability, T/C [1]: 95.2%
viability, T/C [2]: 117%
viability, T/C [3]: 109%
viability, T/C [4]: 115%
viability, T/C [5]: 105%
viability, T/C [6]: 104%
viability, T/C [7]: 113%
viability, T/C [8]: 115%
viability, T/C [9]: 125%
viability, T/C [10]: 115%
viability, T/C [11]: 102%
viability, T/C [12]: 104%
viability, T/C [13]: 125%
viability, T/C [14]: 117%
viability, T/C [15]: 119%
viability, T/C [16]: 116%
viability, T/C [17]: 111%
viability, T/C [18]: 124%
viability, T/C [19]: 128%
viability, T/C [20]: 114%
viability, T/C [21]: 118%
viability, T/C [22]: 116%
viability, T/C [23]: 114%
viability, T/C [24]: 99.1%
viability, T/C [25]: 26.1%
viability, T/C [26]: 28.6%
viability, T/C [27]: 34.2%
viability, T/C [28]: 26.6%
viability, T/C [29]: 28%
viability, T/C [30]: 22.5%

CC[C@@]1(O)C(=O)OCc2c1cc1n(c2=O)Cc2cc3c(CN(C)C)c(O)ccc3nc2-1 + Cc1ccccc1N=Nc1ccc(NC(=O)c2ccnn2C)c(C)c1
IC50 (second compound 0.1 µM): > 100 nM
IC50 (second compound 0.316 µM): 75 nM
IC50 (second compound 1 µM): > 100 nM
IC50 (second compound 3.16 µM): > 100 nM
IC50 (second compound 10 µM): > 100 nM
viability, T/C [1]: 95.9%
viability, T/C [2]: 99%
viability, T/C [3]: 101%
viability, T/C [4]: 82.7%
viability, T/C [5]: 68.8%
viability, T/C [6]: 55.1%
viability, T/C [7]: 97.9%
viability, T/C [8]: 94%
viability, T/C [9]: 99.6%
viability, T/C [10]: 80.1%
viability, T/C [11]: 63.5%
viability, T/C [12]: 45.5%
viability, T/C [13]: 94.2%
viability, T/C [14]: 98.1%
viability, T/C [15]: 94.2%
viability, T/C [16]: 77.9%
viability, T/C [17]: 60.5%
viability, T/C [18]: 50.6%
viability, T/C [19]: 96.2%
viability, T/C [20]: 105%
viability, T/C [21]: 92.9%
viability, T/C [22]: 86.5%
viability, T/C [23]: 60.9%
viability, T/C [24]: 54.3%
viability, T/C [25]: 107%
viability, T/C [26]: 117%
viability, T/C [27]: 86.6%
viability, T/C [28]: 82.7%
viability, T/C [29]: 70%
viability, T/C [30]: 50.8%

CC1COCCN1c1cc(-c2ccnn2C)c2ccnc(-c3ccn[nH]3)c2n1 (stereo not given) + Cc1ccccc1N=Nc1ccc(NC(=O)c2ccnn2C)c(C)c1
IC50 (second compound 0.1 µM): > 1000 nM
IC50 (second compound 0.316 µM): > 1000 nM
IC50 (second compound 1 µM): > 1000 nM
IC50 (second compound 3.16 µM): > 1000 nM
IC50 (second compound 10 µM): > 1000 nM
viability, T/C [3]: 105%
viability, T/C [4]: 100%
viability, T/C [5]: 94.6%
viability, T/C [6]: 84.1%
viability, T/C (second compound 0.1 µM, first compound 0.316 µM): 83.3%
viability, T/C (second compound 0.1 µM, first compound 1 µM): 62.6%
viability, T/C [9]: 87.8%
viability, T/C [10]: 96.9%
viability, T/C [11]: 101%
viability, T/C [12]: 82.7%
viability, T/C (second compound 0.316 µM, first compound 0.316 µM): 68.3%
viability, T/C (second compound 0.316 µM, first compound 1 µM): 61.9%
viability, T/C [15]: 99.8%
viability, T/C [16]: 110%
viability, T/C [17]: 101%
viability, T/C [18]: 93.5%
viability, T/C (second compound 1 µM, first compound 0.316 µM): 79.5%
viability, T/C (second compound 1 µM, first compound 1 µM): 66.9%
viability, T/C [21]: 105%
viability, T/C [22]: 110%
viability, T/C [23]: 101%
viability, T/C [24]: 89.3%
viability, T/C (second compound 3.16 µM, first compound 0.316 µM): 72.1%
viability, T/C (second compound 3.16 µM, first compound 1 µM): 60.1%
viability, T/C [27]: 119%
viability, T/C [28]: 128%
viability, T/C [29]: 103%
viability, T/C [30]: 116%
viability, T/C (second compound 10 µM, first compound 0.316 µM): 80.8%
viability, T/C (second compound 10 µM, first compound 1 µM): 65.9%

CC[C@@]1(O)C(=O)OCc2c1cc1n(c2=O)Cc2cc3c(CN(C)C)c(O)ccc3nc2-1 + CC(CO)NC(=O)c1cc(-c2ccc(Cl)cc2)nn(-c2cnn(C)c2)c1=O
IC50 (second compound 0.1 µM): > 100 nM
IC50 (second compound 0.316 µM): > 100 nM
IC50 (second compound 1 µM): > 100 nM
IC50 (second compound 3.16 µM): > 100 nM
IC50 (second compound 10 µM): > 100 nM
viability, T/C [1]: 101%
viability, T/C [2]: 102%
viability, T/C [3]: 112%
viability, T/C [4]: 98.6%
viability, T/C [5]: 86.7%
viability, T/C [6]: 64.7%
viability, T/C [7]: 94.1%
viability, T/C [8]: 107%
viability, T/C [9]: 93%
viability, T/C [10]: 83.5%
viability, T/C [11]: 76.3%
viability, T/C [12]: 60.3%
viability, T/C [13]: 96.8%
viability, T/C [14]: 108%
viability, T/C [15]: 92.5%
viability, T/C [16]: 79.4%
viability, T/C [17]: 83.6%
viability, T/C [18]: 62.5%
viability, T/C [19]: 89.4%
viability, T/C [20]: 102%
viability, T/C [21]: 93.7%
viability, T/C [22]: 84%
viability, T/C [23]: 71.8%
viability, T/C [24]: 60.7%
viability, T/C [25]: 102%
viability, T/C [26]: 103%
viability, T/C [27]: 86.3%
viability, T/C [28]: 80.7%
viability, T/C [29]: 72.3%
viability, T/C [30]: 57%
